What was measured:
[1] = test system: LoVo RAMS11 CRISPR KO cells; experiment: Individual drug IC50 / cell viability assays in RAMS11 CRISPR KO cells; format: cell-based
Method: The NIH approved oncology library of 119 drugs (AOD6 plate 4825-1 and AOD6 plate 4826) was received from the NIH National Cancer Institute DTP Developmental Therapeutics Program. Drugs were diluted in DMSO to 1 mM and the well assignments were rearranged so drugs were confined to the inner 60 wells of 96-well plates. HT29 RAMS11 overexpressing Clone1 and Clone2 cell lines were seeded at 5000 cells per well in a 96-well plate. The next day serial diluted drug was added to pre-seeded plates in media containing 1% DMSO vehicle, using a Robbins Hydra 96 micro dispenser. Two 96-well plates of cells were used as vehicle controls. The plates were incubated for 3 days. Percent viability was scored by incubating cells for 3 h with resazurin sodium (0.023 mg/mL, Sigma R7017). The reaction was stopped by the addition of SDS (1% final concentration). Fluorescence Ex/Em 540/590 was read in a Biotek Synergy H1 plate reader (Winooski, VT). The fluorescence values for the vehicle plates were averaged and percent viability was determined by the formula: Percent viability=[…]/(average vehicle−average resazurin in media blank)×100. We removed drugs that were undetectable, or out of range, by resazurin assay, leaving 118 drugs to assess in the study (TABLE 3). Values with more than a 1.5-fold change in both RAMS11 Clone1 and Clone2 overexpressing cell lines were used to determine significance. Individual drug IC50 assays were done in a similar manner as described above with CRISPR KO cells. Assays were repeated more than three times.

wildtype (WT) HT29 cells = experiment: Tail vein lung metastasis model, 5FU treatment, BLI imaging, wildtype cells; format: in vivo, NOD scid mice; conditions: WT cell-injected mice, 50 mg/kg 5FU, Week 3
Method: (§1) To determine if cells with high RAMS11 expression promote resistance to fluorouracil (5FU) treatment, 9-week-old female NOD scid mice were injected with 1 e6 wildtype (WT) or RAMS11-overexpressing (RAMS11) HT29 cells (with GFP-luciferase incorporated) via the tail vein, a common model of lung metastasis^13. Seventy-two hours after tumor cell injection mice were subcutaneously treated with vehicle (PBS) or 50 mg/kg 5FU and imaged weekly. […] Further, high expression of RAMS11 promoted resistance to treatment with 5FU.

[2] = test system: RAMS11-overexpressing (RAMS11) HT29 cells; experiment: Tail vein lung metastasis model, 5FU treatment, BLI imaging, RAMS11-overexpressing cells; format: in vivo, NOD scid mice; conditions: RAMS11 cell-injected mice, 50 mg/kg 5FU
Method: as §1

[3] = test system: SW620 cells with silenced RAMS11; experiment: Drug IC50 / cell viability assays in cells with transient silencing of RAMS11
Method: (§3) The FDA-approved anticancer panel included multiple classes of drugs such as kinase inhibitors, alkylating agents, antineoplastic antibiotics, anthracycline antibiotics, and antineoplastic agents (topoisomerase inhibitors). The HT29 RAMS11 overexpressing and control cells were treated for 72 h to assess cellular viability upon drug treatment (FIG. 14a and TABLE 3). […] Due to 5-FU commonly used to treat mCRC, we further determined if RAMS11 expression altered drug sensitivity in treated cells.
(§4) Drugs were diluted in DMSO to 1 mM and the well assignments were rearranged so drugs were confined to the inner 60 wells of 96-well plates. […] The next day serial diluted drug was added to pre-seeded plates in media containing 1% DMSO vehicle, using a Robbins Hydra 96 micro dispenser. Two 96-well plates of cells were used as vehicle controls. The plates were incubated for 3 days. Percent viability was scored by incubating cells for 3 h with resazurin sodium (0.023 mg/mL, Sigma R7017). The reaction was stopped by the addition of SDS (1% final concentration). Fluorescence Ex/Em 540/590 was read in a Biotek Synergy H1 plate reader (Winooski, VT). The fluorescence values for the vehicle plates were averaged and percent viability was determined by the formula: Percent viability=(average vehicle−value)/(average vehicle−average resazurin in media blank)×100. […] Assays were repeated more than three times.

[4] = test system: HT29 RAMS11 overexpressing cells; experiment: High-throughput viability assay (resazurin), 119 FDA-approved anticancer drugs, RAMS11 overexpressing cells (Clone1, Clone2); conditions: for Viability Fold Change: 72 h, vs empty vector control
Method: as §3, §4

RAMS11 = RAMS11 knockdown by ASOs, qPCR; format: cell-based; conditions: in vivo optimized LNA GapmeR ASOs
Source text: (§2) Exiqon's locked nucleic acid (LNA) GapmeRs antisense oligonucleotides (ASOs) were used. They contain a central stretch (gap) of monomers flanked by blocks of LNA modified nucleotides that (i) increase the target affinity and nuclease resistance of the oligo and (ii) the gap activates RNase H cleavage of the target RNA upon binding. The LNATM oligonucleotides can be designed for any region of the target RNA sequence. In addition, the design flexibility afforded by LNATM means that it is possible to design multiple LNATM antisense oligonucleotides to the same target sequence, which serve as useful experimental controls. […] NO: 41) and […] NO: 42). Total RNA was isolated for each CRC cell line using Takara Bio NucleoSpin RNA (Takara, Mountain View, CA). Total RNA was then transcribed to cDNA with SuperScript Ill First strand cDNA system (Invitrogen) and quantified using Fast Sybr Green Master Mix (Invitrogen) as per the manufacturer's protocol. Primer sequences are available in TABLE 5.

LoVo cells = format: cell-based
Source text: as §2, with “42).” for “42). Total RNA was isolated for each CRC cell line using Takara Bio NucleoSpin RNA (Takara, Mountain View, CA). Total RNA was then transcribed to cDNA with SuperScript Ill First strand cDNA system (Invitrogen) and quantified using Fast Sybr Green Master Mix (Invitrogen) as per the manufacturer's protocol. Primer sequences are available in TABLE 5.”

TOP2α promoter = experiment: Chromatin immunoprecipitation (ChIP) qPCR at TOP2α promoter, LoVo; format: cell-based; conditions: LoVo cells
Method: ChIP qPCR assays were conducted by first sonicating five million cells in SDS lysis buffer (1% SDS, 500 mM EDTA, 50 mM Tris-HCl pH 8). […] The next day Dynabeads Protein G (Invitrogen) were added to the antibody lysate mixture and rotated for 1 h. Bead/lysate mixture was then washed once with low salt wash buffer (0.1% SDS, 1% Triton X-100, 2 mM EDTA, 20 mM Tris-HCl pH 8, 150 mM NaCl), then high salt buffer (0.1% SDS, 1% Triton X-100, 2 mM EDTA, 20 mM Tris-HCl pH 8, 500 mM NaCl), lithium chloride wash buffer (0.25 M lithium chloride, 1% NP40, 1% sodium deoxycholate, 1 mM EDTA, 10 mM Tris-HCl pH 8), and finally two washes with Tris-HCl EDTA buffer (10 mM Tris-HCl pH 8, 1 mM EDTA). DNA was eluted by incubating beads for 30 min at room temperature with SDS elution buffer (1% SDS, 0.1 M sodium bicarbonate), followed by 1.25 M NaCl and 2.5 mg/mL RNAse A at 95° for 15 min shaking followed by addition of proteinase K buffer (1 μL 10 mg/mL proteinase K, 5 μL […], 10 μL 1 M Tris pH 7.5) shaking at 60° for 15 min. DNA was then isolated using phenol:chloroform:isoamyl alcohol extraction following the general protocol as mentioned above. […] The % input calculations were determined by comparing CT values from input DNA and ChIP DNA for the TOP2A target promoter region using the following equation: % Input=% of starting input fraction×2^[CT(input)−CT(Chlp)] […]

[5] = OE1 (RAMS11 overexpression clone 1), 0.1 uM drug
[6] = OE1 (RAMS11 overexpression clone 1), 1 uM drug
[7] = OE1 (RAMS11 overexpression clone 1), 10 uM drug
[8] = OE2 (RAMS11 overexpression clone 2), 0.1 uM drug
[9] = OE2 (RAMS11 overexpression clone 2), 1 uM drug
[10] = OE2 (RAMS11 overexpression clone 2), 10 uM drug

## O=c1[nH]cc(F)c(=O)[nH]1 [5-FU, fluorouracil, reference compound]
[1]; LoVo RAMS11 CRISPR1 compared with wild-type cells
  increase in drug sensitivity: 1.7 fold
[1]; LoVo RAMS11 CRISPR2 compared with wild-type cells
  increase in drug sensitivity: 5.8 fold
Wildtype (WT) HT29 cells
  decrease in ex vivo BLI of lung tissue: 55%
[2]
  change between vehicle and 5FU-treated mice, in vivo and ex vivo lung BLI: no significant change
[3]; SW620, RAMS11 siRNA1 relative to scrambled control
  increase in drug sensitivity: > 1.53 fold
[3]; SW620, RAMS11 siRNA2 relative to scrambled control
  increase in drug sensitivity: > 1.59 fold
[4]; [5]
  Viability Fold Change: 0.9856
[4]; [6]
  Viability Fold Change: 0.9553
[4]; [7]
  Viability Fold Change: 0.9891
[4]; [8]
  Viability Fold Change: 0.9406
[4]; [9]
  Viability Fold Change: 0.9417
[4]; [10]
  Viability Fold Change: 1.021

## O=C1[O][Pt]2([NH][C@@H]3CCCC[C@H]3[NH]2)[O]C1=O [oxaliplatin, reference compound]
[1]; LoVo RAMS11 CRISPR KO cells
  effect of cell viability: did not see a significant effect
[3]; SW620 cells with silenced RAMS11
  effect of cellular viability: did not have a significant effect
[4]; HT29 RAMS11 overexpressing cells
  effect of cell viability: did not see a significant effect
[4]; [5]
  Viability Fold Change: 0.9127
[4]; [6]
  Viability Fold Change: 0.9881
[4]; [7]
  Viability Fold Change: 1.33
[4]; [8]
  Viability Fold Change: 0.9671
[4]; [9]
  Viability Fold Change: 1.102
[4]; [10]
  Viability Fold Change: 1.427

## ASO #1: LNA GapmeR antisense oligonucleotide against RAMS11: CAACTTCCAGCAAGAT (SEQ ID NO: 41) (LNA gapmer, pattern not given here)
RAMS11
  RAMS11 knockdown: most potent
LoVo cells
  cell viability: do not alter cell viability

## ASO #2: LNA GapmeR antisense oligonucleotide against RAMS11: AGAACTGCTAAAAGTG (SEQ ID NO: 42) (LNA gapmer, pattern not given here)
RAMS11
  RAMS11 knockdown: most potent
LoVo cells
  cell viability: do not alter cell viability

## CBX4 siRNA: custom silencer select siRNA targeting CBX4, SEQ ID NO: 35 and 36 (chain 1 UAUGGGUUCAUCCAGGUCUGA; chain 2 AGACCUGGAUGAACCCAUATT; chemistry not given here)
TOP2α promoter
  H3K4me3 at the TOP2α promoter: decrease
  decrease in CBX4 occupancy at the TOP2α promoter: 78%
